Reference: patent US20070191491A1, “[…] OF STORED GOODS, ENCLOSURES, […] WORKS OF ART, WITH SULPHUR COMPOUNDS” (Arkema France, priority 2002, published 2007)

Experiments:
[1] = tested on: Sitophilus orizae; experiment: Efficacy of DMDS in a silo of wheat grains infested with Sitophilus orizae; assay type: in vivo; settings: same trial conditions, 20° C.
Description: (§1) These two organisms are Sitophilus granarius and Sitophilus orizae.
(§2) Dimensions of the silo: • total height: 40 cm • total volume: 3.3 l • filling level: 75%, that is a grain height of […].
(§3) 99 mg of pure DMDS are deposited at the surface of the grains using a syringe. The samples collected consist of bundles of 50 g of wheat containing all the stages of development of the pathogenic organisms. After degassing by aeration of the silo at the times T, the bundles of wheat are screened and the adults are counted immediately after screening (D+0) and after 14 days (D+14). The wheat containing the other stages of development is then examined for 5 weeks.
The products CT of the concentrations C of DMDS by the times of measurement T are determined and the efficacy of the treatment in relation to the 2 pathogenic organisms studied for all the stages of development is monitored as a function of these products CT. […]
Under the same trial conditions, this time on organisms of the Sitophilus orizae type, similar results are obtained. The pesticidal efficacy of DMDS against the pathogenic organism Sitophilus orizae is evaluated in terms of the product CT at about 100 ghm^−3 (useful CT).

[2] = tested on: Sitophilus granarius; experiment: Efficacy of DMDS in a silo of wheat grains infested with Sitophilus granarius (adult mortality, % NER); assay type: in vivo; settings: for Total No. of insects emerged: untreated control 271
Description: as §1, §2, §3
The products CT of the concentrations C of DMDS by the times of measurement T are determined and the efficacy of the treatment in relation to the 2 pathogenic organisms studied for all the stages of development is monitored as a function of these products CT. The results are expressed: • as a percentage of the adult mortality at the times (D+0) and (D+14). • as a percentage of net emergence reduction (% NER) relative to an untreated control batch for the different stages of development of these organisms (that is to say eggs and 2nd generation, eggs and 1st stage larvae, 1st and 2nd stage larvae, 2nd and 3rd stage larvae, 3rd and 4th stage larvae, 4th stage larvae and nymphs), which corresponds to the following formula: % NER=(number of insects which emerged live from the control batch−number of insects which emerged live from the treated batch)/(number of insects which emerged live from the control batch).

## CSSC [DMDS, dimethyl disulphide]
[1]
  pesticidal efficacy in terms of the product CT (useful CT): about 100 ghm^−3
[2]; CT 5.8 gh.m^−3, 20° C.
  % NER Eggs and 2nd generation: 13%
  % NER Eggs and Ist stage larvae: 41%
  % NER IIIrd and IVth stage larvae: 3%
  % NER IInd and IIIrd stage larvae: 13%
  % NER IVth stage larvae and nymphs: 21%
  % NER Ist and IInd stage larvae: 20%
  % adult mortality D + 0: 0%
  % adult mortality D + 14: 8%
  Total % NER: 25%
  Total No. of insects emerged: 202
[2]; CT 6.1 gh.m^−3, 20° C.
  % NER Eggs and 2nd generation: 33%
  % NER Eggs and Ist stage larvae: 5%
  % NER IIIrd and IVth stage larvae: 19%
  % NER IInd and IIIrd stage larvae: 16%
  % NER IVth stage larvae and nymphs: 54%
  % NER Ist and IInd stage larvae: 80%
  % adult mortality D + 0: 3%
  % adult mortality D + 14: 9%
  Total % NER: 23%
  Total No. of insects emerged: 208
[2]; CT 15.0 gh.m^−3, 20° C.
  % NER Eggs and 2nd generation: 25%
  % NER Eggs and Ist stage larvae: 54%
  % NER IIIrd and IVth stage larvae: 26%
  % NER IInd and IIIrd stage larvae: 71%
  % NER IVth stage larvae and nymphs: 75%
  % NER Ist and IInd stage larvae: 88%
  % adult mortality D + 0: 64%
  % adult mortality D + 14: 93%
  Total % NER: 54%
  Total No. of insects emerged: 126
[2]; CT 26.9 gh.m^−3, 20° C.
  % NER Eggs and 2nd generation: 20%
  % NER Eggs and Ist stage larvae: 79%
  % NER IIIrd and IVth stage larvae: 65%
  % NER IInd and IIIrd stage larvae: 94%
  % NER IVth stage larvae and nymphs: 92%
  % NER Ist and IInd stage larvae: 88%
  % adult mortality D + 0: 92%
  % adult mortality D + 14: 92%
  Total % NER: 72%
  Total No. of insects emerged: 75
[2]; CT 50.5 gh.m^−3, 20° C.
  % NER Eggs and 2nd generation: 93%
  % NER Eggs and Ist stage larvae: 100%
  % NER IIIrd and IVth stage larvae: 97%
  % NER IInd and IIIrd stage larvae: 100%
  % NER IVth stage larvae and nymphs: 100%
  % NER Ist and IInd stage larvae: 100%
  % adult mortality D + 0: 100%
  % adult mortality D + 14: 100%
  Total % NER: 99%
  Total No. of insects emerged: 4
[2]; CT 88.4 gh.m^−3, 20° C.
  % NER Eggs and 2nd generation: 95%
  % NER Eggs and Ist stage larvae: 100%
  % NER IIIrd and IVth stage larvae: 100%
  % NER IInd and IIIrd stage larvae: 100%
  % NER IVth stage larvae and nymphs: 100%
  % NER Ist and IInd stage larvae: 100%
  % adult mortality D + 0: 100%
  % adult mortality D + 14: 100%
  Total % NER: 99%
  Total No. of insects emerged: 2
[2]; CT 160.4 gh.m^−3, 20° C.
  % NER Eggs and 2nd generation: 100%
  % NER Eggs and Ist stage larvae: 100%
  % NER IIIrd and IVth stage larvae: 100%
  % NER IInd and IIIrd stage larvae: 100%
  % NER IVth stage larvae and nymphs: 100%
  % NER Ist and IInd stage larvae: 100%
  % adult mortality D + 0: 100%
  % adult mortality D + 14: 100%
  Total % NER: 100%
  Total No. of insects emerged: 0
[2]; CT values greater than 50 gh.m^−3
  mortality for the majority of the stages: 100%
[2]; product CT of 160 gh.m^−3
  mortality for all the stages of development: 100%
[2]; wheat silo, 20° C.
  pesticidal efficacy in terms of the product CT (useful CT): about 100 ghm^−3
